Measured values from ChEMBL document CHEMBL1201862, “PubChem BioAssay data set” (2004).
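In this assay, cells in 96-well plates receive the compound at five concentrations for 48 hours. Endpoints are linearly interpolated between the surrounding concentrations. Abbreviation: GI50, concentration required for 50% inhibition of growth.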 The source made the active and inactive calls. Rule as the data show it: active = GI50 up to about 1.1 µM and inactive = higher.

Experiments:
Experiment in all cases: growth of human tumour cells (NCI), 48 h
[1] = test system: K562
[2] = test system: NCI-H23
[3] = test system: HL-60
[4] = test system: EKVX
[5] = test system: SNB-19
[6] = test system: OVCAR-5
[7] = test system: A498
[8] = test system: SF-539
[9] = test system: UACC-257
[10] = test system: UO-31
[11] = test system: NCI-H460
[12] = test system: NCI-H522
[13] = test system: MDA-MB-435
[14] = test system: ACHN
[15] = test system: SK-MEL-28
[16] = test system: Malme-3M
[17] = test system: DU-145
[18] = test system: SN12C
[19] = test system: HCT-116
[20] = test system: RXF 393

Measured: GI50

Cc1ccc(Nc2nc(=O)c3c4ccccc4n(C(=O)OC(C)(C)C)c3s2)cc1
inactive: [1] 27.4 µM | [2] 23.1 µM | [3] 24.8 µM | [4] 29.1 µM | [5] 79.1 µM | [6] 19.7 µM | [7] 39.1 µM | [8] 26.6 µM | [9] 51.1 µM | [10] 5.9 µM | [11] 15.7 µM | [12] 22.5 µM | [13] 4.9 µM | [14] 35.5 µM | [15] 44.9 µM | [16] 28.4 µM | [17] 33.7 µM

O=C(CC1C=CCS1(=O)=O)NCc1ccccc1 (stereo not given)
inactive: [1] > 100 µM | [2] > 100 µM | [3] > 100 µM | [18] > 100 µM | [4] > 100 µM | [19] > 100 µM | [5] > 100 µM | [6] > 100 µM | [8] > 100 µM | [9] > 100 µM | [10] > 100 µM | [11] > 100 µM | [12] > 100 µM | [13] > 100 µM | [14] > 100 µM | [15] > 100 µM | [20] > 100 µM | [17] > 100 µM

CC(C)=CCC/C(C)=C/CC/C(C)=C/CC/C(C=O)=C/CC/C(C)=C\CC/C(C)=C/CC/C(C)=C/CC/C(C)=C/CC1=CC(=O)C=CC1=O
inactive: [1] > 100 µM | [2] 22.9 µM | [18] > 100 µM | [4] > 100 µM | [19] 73.5 µM | [5] > 100 µM | [6] > 100 µM | [7] > 100 µM | [9] 48 µM | [10] > 100 µM | [11] > 100 µM | [12] 14.9 µM | [13] 56.4 µM | [14] > 100 µM | [15] > 100 µM | [16] 21.8 µM | [17] > 100 µM

COc1ccc(N2C(=O)C3c4[nH]c5ccc(C)cc5c4C4CCC(C(C)(C)C)CC4C3C2=O)cc1 (stereo not given)
inactive: [1] 13.4 µM | [2] 22.3 µM | [3] 19.1 µM | [18] 48.4 µM | [4] 31 µM | [19] 7.66 µM | [5] 22.6 µM | [8] 15.6 µM | [9] 23.8 µM | [10] 17.2 µM | [11] 6.22 µM | [12] 25.6 µM | [13] 24.9 µM | [14] 7.64 µM | [15] 11.5 µM | [20] 16.9 µM | [17] > 100 µM

O=C(O)CN1CCN2CCCCCN(CC1)CCN(CC(=O)O)CC2
inactive: [1] > 100 µM | [3] 5.26 µM | [18] > 100 µM | [4] > 100 µM | [19] 73.8 µM | [5] > 100 µM | [6] > 100 µM | [7] > 100 µM | [8] > 100 µM | [9] > 100 µM | [10] > 100 µM | [11] 91.4 µM | [12] 53.3 µM | [13] > 100 µM | [14] > 100 µM | [15] > 100 µM | [16] 22.4 µM | [17] > 100 µM

CC(=O)c1ccccc1NCC(=O)Nn1cnc2ccc(S(=O)(=O)Nc3ccccc3C(C)=O)cc2c1=O
inactive: [1] > 100 µM | [2] > 100 µM | [3] > 100 µM | [18] > 100 µM | [4] > 100 µM | [19] > 100 µM | [5] > 100 µM | [6] > 100 µM | [8] > 100 µM | [9] > 100 µM | [10] > 100 µM | [11] > 100 µM | [12] > 100 µM | [13] > 100 µM | [14] > 100 µM | [15] > 100 µM | [16] > 100 µM | [17] > 100 µM
